From the NIST ThermoML archive (doi:10.1016/j.fluid.2010.12.008) come the findings set out here.

The conditions of data set [1]: for Normal melting temperature: Crystal 1.
The nature of data set [2]: Molar enthalpy of transition or fusion. As to conditions: DSC.

± gives the expanded uncertainty stated by the source.

As for `CC[N+]1(C)CCCCC1.O=S(=O)([N-]S(=O)(=O)C(F)(F)F)C(F)(F)F`, the Normal melting temperature in data set [1] (DTA) amounted to 84.89 ± 0.5 °C; in data set [1] (visual observation) it was 84.56 ± 0.5 °C. Further, the Triple point temperature in data set [1] (Crystal 2, visual observation) is listed as 289.6 ± 0.5 K; in data set [1] (Crystal 3, DTA) it was 215.8 ± 0.5 K. Further, the “Molar enthalpy of transition or fusion” value was found to be 3.97 ± 0.124 kcal/mol in data set [2] (Crystal 1), 0.844 ± 0.0454 kcal/mol in data set [2] (Crystal 2) and 0.586 ± 0.0406 kcal/mol in data set [2] (Crystal 3).
`CCCC[N+]1(C)CCCCC1.N#C[S-]` [1-butyl-1-methylpiperidinium thiocyanate]: in data set [1] (DTA), the Normal melting temperature was found to be 31.17 ± 0.5 °C. In data set [1] (Crystal 2, DTA), the Triple point temperature is 274.2 ± 0.5 K. In data set [1] (Glass, DTA), the Glass transition temperature is -71.8 ± 10 °C. In addition, the “Molar enthalpy of transition or fusion” value in data set [2] (Crystal 1) amounted to 0.722 ± 0.0478 kcal/mol; in data set [2] (Crystal 2), 3.65 ± 0.117 kcal/mol.
`CCCCCCCCCCO` [decan-1-ol]: in data set [1] (visual observation), the Normal melting temperature came to 7.00 ± 1.1 °C.
On to `CCCCCCCCCCCCO` [dodecan-1-ol], for which the Normal melting temperature in data set [1] (visual observation) is 24.00 ± 1.1 °C.
As for `CCCCCCCO` [heptan-1-ol], the Normal melting temperature in data set [1] (visual observation) was -34.60 ± 1.1 °C.
Regarding `CCCCCCO` [hexan-1-ol], the Normal melting temperature in data set [1] (visual observation) was -45.00 ± 1.1 °C.
Still for that read-out and setting: the figure for `CCCCCCCCO` [octan-1-ol] is -16.00 ± 1.1 °C; for `O` [water] it is 0.00 ± 1.1 °C.
